Experimental data from ChEMBL document CHEMBL4339238, “Potent Anti-HIV Ingenane Diterpenoids from Euphorbia ebracteolata” (J Nat Prod, 2019).

Key:
[1] = tested on: Human immunodeficiency virus 1; assay: Antiviral activity against HIV NL4-3 infected in human MT4 cells measured on day 3 post-infection by Nano-Glo luciferase assay; assay type: functional, organism-based; settings: Human immunodeficiency virus 1, NL4-3, MT4, 72 h
[2] = Cytotoxicity against human MT4 cells measured after 3 days by CytoTox-Glo assay; assay type: cell-based
[3] = Selectivity index, ratio of CC50 for human MT4 cells to IC50 for HIV NL4-3 infected in human MT4 cells; assay type: toxicity, cell-based; settings: read-out: Ratio CC50/IC50

| Structure (SMILES) | IC50 [1] [nM] | CC50 at 72 h [2] [nM] | selectivity ratio [3] |
| --- | --- | --- | --- |
| CCCCCCCCCCCCCCCC(=O)O[C@H]1C(C)=C[C@]23C(=O)[C@@H](C=C(CO)[C@@H](O)[C@]12O)[C@H]1[C@@H](C[C@H]3C)C1(C)C | 4.1 | 26300 | 6420 |
| CCCCC/C=C\C=C\C(=O)O[C@H]1C(C)=C[C@]23C(=O)[C@@H](C=C(COC(C)=O)[C@@H](O)[C@]12O)[C@H]1[C@@H](C[C@H]3C)C1(C)C | 1.8 | > 900 | > 526 |
| CCCCCCCCCCCCCCCC(=O)O[C@@H]1C(CO)=C[C@@H]2C(=O)[C@]3(C=C(C)[C@H](O)[C@@]13O)[C@H](C)C[C@@H]1[C@H]2C1(C)C | 4.4 | > 1700 | > 385 |
| CCCCC/C=C/C=C/C(=O)O[C@H]1C(C)=C[C@]23C(=O)[C@@H](C=C(COC(C)=O)[C@@H](O)[C@]12O)[C@H]1[C@@H](C[C@H]3C)C1(C)C | 5 | > 900 | > 185 |
| CCCCCCCCCCCCCC(=O)OCC1=C[C@@H]2C(=O)[C@]3(C=C(C)[C@H](O)[C@@]3(O)[C@@H]1O)[C@H](C)C[C@@H]1[C@H]2C1(C)C | 8.6 | 32400 | 3770 |
| CCCCCCCCCCCCCCCC(=O)OCC1=C[C@@H]2C(=O)[C@]3(C=C(C)[C@H](O)[C@@]3(O)[C@@H]1O)[C@H](C)C[C@@H]1[C@H]2C1(C)C | 1.1 | > 1700 | > 1540 |
| CCCCCCCCCCCCCC(=O)O[C@@H]1C(CO)=C[C@@H]2C(=O)[C@]3(C=C(C)[C@H](O)[C@@]13O)[C@H](C)C[C@@H]1[C@H]2C1(C)C | 3.9 | > 1800 | > 454 |
| CC1=C[C@]23C(=O)[C@@H](C=C(CO)[C@@H](O)[C@]2(O)[C@H]1O)[C@H]1[C@@H](C[C@H]3C)C1(C)C [INGENOL] | > 10 | > 10000 |  |
| Cc1cn([C@H]2C[C@H](N=[N+]=[N-])[C@@H](CO)O2)c(=O)[nH]c1=O [ZIDOVUDINE] | 18.7 | > 370 | > 20 |

The next lines start with results.

| IC50 [1] [nM] | Structure (SMILES) | CC50 at 72 h [2] [nM] | selectivity ratio [3] |
| --- | --- | --- | --- |
| 1.2 | CCCCC/C=C/C=C/C(=O)O[C@@H]1C(COC(C)=O)=C[C@@H]2C(=O)[C@]3(C=C(C)[C@H](O)[C@@]13O)[C@H](C)C[C@@H]1[C@H]2C1(C)C | 15200 | 13000 |
| 0.7 | CCCCC/C=C\C=C\C(=O)O[C@@H]1C(COC(C)=O)=C[C@@H]2C(=O)[C@]3(C=C(C)[C@H](O)[C@@]13O)[C@H](C)C[C@@H]1[C@H]2C1(C)C | 14300 | 20300 |
| 2.3 | CCCCCCCCCCCCCC(=O)O[C@H]1C(C)=C[C@]23C(=O)[C@@H](C=C(CO)[C@@H](O)[C@]12O)[C@H]1[C@@H](C[C@H]3C)C1(C)C | 26300 | 11300 |
| 8.4 | CCCC\C=C/C=C/C=C/C(=O)O[C@H]1C(C)=C[C@]23C(=O)[C@@H](C=C(COC(C)=O)[C@@H](O)[C@]12O)[C@H]1[C@@H](C[C@H]3C)C1(C)C | > 900 | > 111 |
| 1.1 | CCCCCC/C=C/CCCCCCCC(=O)O[C@H]1C(C)=C[C@]23C(=O)[C@@H](C=C(CO)[C@@H](O)[C@@]12O)[C@H]1[C@@H](C[C@H]3C)C1(C)C | 13900 | 13100 |
| 9.7 | CCCC\C=C/C=C\C=C\C(=O)O[C@H]1C(C)=C[C@]23C(=O)[C@@H](C=C(COC(C)=O)[C@@H](O)[C@]12O)[C@H]1[C@@H](C[C@H]3C)C1(C)C | > 900 | > 96.2 |
| 2.7 | CCCCCC/C=C\CCCCCCCC(=O)O[C@H]1C(C)=C[C@]23C(=O)[C@@H](C=C(CO)[C@@H](O)[C@@]12O)[C@H]1[C@@H](C[C@H]3C)C1(C)C | > 1700 | > 625 |
| 8.2 | CCCCCCCCCC(=O)OCC1=C[C@@H]2C(=O)[C@]3(C=C(C)[C@H](O)[C@@]3(O)[C@@H]1O)[C@H](C)C[C@@H]1[C@H]2C1(C)C | 48800 | 5980 |
